Measured values from patent US10213428B2, “(4-((3R,4R)-3-methoxytetrahydro-pyran-4-ylamino)piperidin-1-yl)(5-methyl-6-(((2R,6S)-6-(p-tolyl)tetrahydro-2H-pyran-2-yl)methylamino)pyrimidin-4-yl)methanone citrate” (Centrexion Therapeutics Corporation, priority 2015, dated 2019).

How the values were obtained:
[1] = In vitro plasma protein binding (equilibrium dialysis), rat; format: in vitro ADME; details: pH 7.4, dialysis 2 hours at 37° C., read-out: Fraction bound (converted)
Protocol: (§1) Dianorm Teflon dialysis cells (micro 0.2) are used. Each cell consists of a donor (i.e., buffer chamber) and an acceptor chamber (i.e., plasma chamber), separated by an ultrathin semipermeable membrane with a 5 kDa molecular weight cutoff. Stock solutions for each test compound are prepared in DMSO at 1 mM and diluted to a final concentration of 1.0 μM. Aliquots of 200 μL dialysis buffer (100 mM potassium phosphate, pH 7.4) are dispensed into the buffer chamber. Aliquots of 200 μL test compound dialysis solution are dispensed into the plasma chambers. Incubation is carried out for 2 hours under rotation at 37° C. Then, the dialysate is transferred into reaction tubes. The tubes for the buffer fraction contain 0.2 mL acetonitril/water (80/20 volume/volume). Aliquots of 25 μL of the plasma dialysate are transferred into deep well plates and mixed with 25 μL acetonitril/water (80/20 volume/volume), 25 μL buffer, 25 μL calibration solution and 25 μL Internal Standard solution. Protein precipitation is done by adding 200 μL acetonitrile. Aliquots of 50 μL of the buffer dialysate are transferred into deep well plates and mixed with 25 μL blank plasma, 25 μL Internal Standard solution and 200 μL acetonitril. Percent bound is calculated with the formula: % bound=(plasma concentration−buffer concentration/plasma concentration)×100.

[2] = system: plasma protein; assay: as above; format: in vitro ADME; details: 1.0 μM, dialysis 2 hours at 37° C.
Protocol: as §1

[3] = system: plasma protein; assay: In vitro plasma protein binding (equilibrium dialysis), dog; format: in vitro ADME; details: 1.0 μM, dialysis 2 hours at 37° C.
Protocol: as §1

[4] = In vitro plasma protein binding (equilibrium dialysis), human; format: in vitro ADME; details: pH 7.4, dialysis 2 hours at 37° C., read-out: Fraction bound (converted)
Protocol: as §1

[5] = system: plasma protein; assay: as above; format: in vitro ADME; details: 1.0 μM, dialysis 2 hours at 37° C.
Protocol: as §1

[6] = In vitro metabolic stability in hepatocyte incubations, mouse; format: in vitro ADME; details: hepatocytes (suspension); Mouse; predicted from hepatocyte CL intrinsic, well stirred model; read-out: CL, in vivo
Protocol: (§2) Metabolic degradation of the test compound is assayed in a hepatocyte suspension. Hepatocytes are incubated in an appropriate buffer system. Following a (typically) 30 min preincubation in an incubator (37° C., 10% CO2) 5 μL of test compound solution (1 μM) are added into 395 μL hepatocyte suspension (cell density in the range 0.25-5 Mio cells/mL, typically 1 Mio cells/mL, final DMSO concentration 0.05%). The cells are incubated for six hours (incubator, orbital shaker) and samples (25 μL) are taken at 0, 0.5, 1, 2, 4 and 6 hours. Samples are transferred into acetonitrile and pelleted by centrifugation (5 min). The supernatant is transferred to a new 96-deepwell plate, evaporated under nitrogen and resuspended. Decline of parent compound is analyzed by HPLC-MS/MS. CLint is calculated as follows CL_INTRINSIC=Dose/AUC=(CO/CD)/(AUD+clast/k)×1000/60. […]

[7] = system: hepatocytes; assay: as above; format: in vitro ADME; details: Mouse hepatocytes, 1 μM
Protocol: as §2

[8] = In vitro metabolic stability in hepatocyte incubations, dog; format: in vitro ADME; details: hepatocytes (suspension); Dog; predicted from hepatocyte CL intrinsic, well stirred model; read-out: CL, in vivo
Protocol: as §2

[9] = system: hepatocytes; assay: as above; format: in vitro ADME; details: Dog hepatocytes, 1 μM
Protocol: as §2

[10] = In vitro metabolic stability in hepatocyte incubations, minipig; format: in vitro ADME; details: hepatocytes (suspension); Minipig; predicted from hepatocyte CL intrinsic, well stirred model
Protocol: as §2

[11] = system: hepatocytes; assay: as above; format: in vitro ADME; details: Minipig hepatocytes, 1 μM
Protocol: as §2

[12] = Intravenous pharmacokinetics in mouse; format: in vivo, BALB/c mice; details: IV dose 10 μmol/kg, mean values
Text: (§3) The pharmacokinetics of the test compound following single intravenous (IV) or oral (PO) doses were examined in • female BALB/c mice (average weight: 25 g) • male Wistar(Han) rats (average weight: 260 g) • male and female Göttingen Minipigs (average weight: 24 kg) • male beagle dogs (average weight: 15 kg) All non-rodent species were fasted overnight prior to dosing, while mice and rats had food and water available ad libitum. The p.o. dose of the compound was usually administered as suspension in 0.5% Natrosol or as a 0.5% Natrosol/0.015% Tween 80 suspension. For i.v. dosing purposes, the doses were applied as a solution in 0.9% NaCL, or as a solution containing 9.1% HP-beta Cyclodextrin in water.
(§4) Blood was collected by venous sampling and soaking of the blood in EDTA coated tubes. Samples were collected for up to 48 h after administration of the test compound. Plasma was then separated by centrifugation (5 min by approximately 9000 g at 4° C.). For determination of the test compound, plasma was transferred into PCR plates. All samples were stored at approximately −20° C. until bioanalytics. The test compound concentrations in plasma were determined by HPLC MS/MS. The lower limit of quantification was between 0.5 nmol/L and 1 nmol/L.

[13] = Intravenous pharmacokinetics in minipig; format: in vivo, Göttingen Minipigs; details: IV dose 5 μmol/kg, mean values
Text: as §3, §4

[14] = Oral pharmacokinetics in rat; format: in vivo, Wistar(Han) rats; details: oral dose 20 μmol/kg of compound I
Text: as §3, §4

[15] = system: U937 cells; assay: In vitro phospholipidosis assay (Nile Red staining, flow cytometry); details: 48 hours incubation
Protocol: Cell line: U937. Cell density: 0.5 Mio. cells/mL. Amount of medium: 3 mL/well.
3×0.5 mL suspensions of cells are prepared from each sample for flow cytometry measurement (non-fixed cells for viability determination, non-fixed cells and fixed cells for phospholipidosis analysis).
Immediately before measurement, 12.5 μL of the PI ready to use solution is added per sample (0.5 mL non-fixed cell suspension), which are kept on ice for another 15 min before measurement.
Cut-off gates for the fluorescence-dependent differentiation between life and dead cells are defined based on the analysis of cell culture medium plus vehicle exposed Control cells. Cells with a fluorescence lower than the cut-off are defined as viable. Absolute viability of a sample is the relation of viable cells to total cell number and expressed as percentage.
Immediately before measurement, 50 μL of the NR ready to use solution for live cell staining is added per sample (0.5 mL non-fixed cell suspension). Samples are kept on ice for another 5 min. […]
Both the Nile Red stained non-fixed cells as well as the Nile Red stained fixed cells are measured according the following procedure. […]
For each channel, absolute fluorescence intensity of a specific sample is correlated to the mean absolute fluorescence intensity of all cell culture medium plus vehicle exposed Control cells of the respective experiment. […]

[16] = female, BALB/c, plasma, 10 umol/kg
[17] = both sexes, Göttingen, plasma, 5 umol/kg
[18] = male, Wistar(Han), plasma, 20 umol/kg, mean values

SMILES: CO[C@H]1COCC[C@H]1NC1CCN(C(=O)c2ncnc(NC[C@H]3CCC[C@@H](c4ccc(C)cc4)O3)c2C)CC1 [compound I, (4-((3R,4R)-3-methoxytetrahydro-pyran-4-ylamino)piperidin-1-yl)(5-methyl-6-(((2R,6S)-6-(p-tolyl)tetrahydro-2H-pyran-2-yl)methylamino)pyrimidin-4-yl)methanone]
- fraction unbound at 2 h, 1 μM [1]: 0.311
- Fraction unbound [2]: 31.1%
- Fraction unbound [3]: 29.6%
- fraction unbound at 2 h, 1 μM [4]: 0.153
- Fraction unbound [5]: 15.3%
- CLhep predicted at 1 μM [6]: 49 mL/min/kg
- CL intrinsic, in vitro [7]: 16.4 μL/min/10e6 cells
- CLhep predicted at 1 μM [8]: 14 mL/min/kg
- CL intrinsic, in vitro [9]: 3.15 μL/min/10e6 cells
- predicted in vivo clearance at 1 μM [10]: 6.8 mL/min/kg
- CL intrinsic, in vitro [11]: 2.73 μL/min/10e6 cells
- MRTdisp [12]: 0.623 h
- AUC(0-inf) [12, 16]: 1.99 µM·h
- clearance [12, 16]: 86 mL/min/kg
- Vd ([12]; female, BALB/c, plasma, 10 umol/kg, read-out: Vss): 3.29 L/kg
- MRTdisp [13]: 4.15 h
- AUC(0-inf) [13, 17]: 4.31 µM·h
- clearance [13, 17]: 20 mL/min/kg
- Vd ([13]; both sexes, Göttingen, plasma, 5 umol/kg, read-out: Vss): 5.07 L/kg
- AUC(0-inf) [14, 18]: 2.27 µM·h
- Cmax [14, 18]: 580 nM
- Tmax [14, 18]: 1.5 h
- MRTtot ([14]; mean values): 5.49 h
- F ([14]; oral bioavailability): 38%
- lowest phospholipidogenic concentration [15]: 200 µM
- phospholipidogenic potential (in words) [15]: propensitiy to be phospholipidogenic
